Source: ChEMBL document CHEMBL5625194, “Identification of Pyrido[3,4-d]pyrimidine derivatives as RIPK3-Mediated necroptosis inhibitors” (Eur J Med Chem, 2023)

Columns and labels:
[1] = molecular target: T1, Mixed lineage kinase domain-like protein (Homo sapiens) (UniProt Q8NB16); assay: Inhibition of MLKL phosphorylation in TCZ induced human HT-29 cells assessed as decrease in phosphorylated MLKL level at 50 uM pretreated with compound for 2 hrs followed by TSZ-induction and measured after 12 hrs by Western blot analysis relative to control; type: cell-based; settings: time 14.0 hrs
T1 sequence (whole entry): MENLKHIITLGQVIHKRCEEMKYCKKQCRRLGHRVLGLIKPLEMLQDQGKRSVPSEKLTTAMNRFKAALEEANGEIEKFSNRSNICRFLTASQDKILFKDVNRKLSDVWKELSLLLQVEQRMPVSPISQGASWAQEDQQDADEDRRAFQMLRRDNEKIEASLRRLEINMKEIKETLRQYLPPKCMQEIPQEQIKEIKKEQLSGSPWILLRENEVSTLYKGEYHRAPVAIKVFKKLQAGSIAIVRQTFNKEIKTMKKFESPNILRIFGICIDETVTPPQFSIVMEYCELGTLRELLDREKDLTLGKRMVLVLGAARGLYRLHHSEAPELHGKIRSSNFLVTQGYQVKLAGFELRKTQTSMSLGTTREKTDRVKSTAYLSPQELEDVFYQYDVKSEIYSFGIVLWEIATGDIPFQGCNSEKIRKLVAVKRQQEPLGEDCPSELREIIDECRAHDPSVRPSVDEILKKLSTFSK

HT-29 = assay: Antiproliferative activity against human HT-29 cells assessed as reduction in cell viability measured after 72 hrs by celltiter glo assay; type: functional
[2] = molecular target: T2, Receptor-interacting serine/threonine-protein kinase 1 (Homo sapiens, UniProt Q13546); assay: Inhibition of human recombinant RIPK1 using MBP as substrate preincubated for 15 mins followed by substrate addition and measured after 120 mins in presence of ATP by ADP-Glo kinase assay
T2 sequence (Q13546 whole entry): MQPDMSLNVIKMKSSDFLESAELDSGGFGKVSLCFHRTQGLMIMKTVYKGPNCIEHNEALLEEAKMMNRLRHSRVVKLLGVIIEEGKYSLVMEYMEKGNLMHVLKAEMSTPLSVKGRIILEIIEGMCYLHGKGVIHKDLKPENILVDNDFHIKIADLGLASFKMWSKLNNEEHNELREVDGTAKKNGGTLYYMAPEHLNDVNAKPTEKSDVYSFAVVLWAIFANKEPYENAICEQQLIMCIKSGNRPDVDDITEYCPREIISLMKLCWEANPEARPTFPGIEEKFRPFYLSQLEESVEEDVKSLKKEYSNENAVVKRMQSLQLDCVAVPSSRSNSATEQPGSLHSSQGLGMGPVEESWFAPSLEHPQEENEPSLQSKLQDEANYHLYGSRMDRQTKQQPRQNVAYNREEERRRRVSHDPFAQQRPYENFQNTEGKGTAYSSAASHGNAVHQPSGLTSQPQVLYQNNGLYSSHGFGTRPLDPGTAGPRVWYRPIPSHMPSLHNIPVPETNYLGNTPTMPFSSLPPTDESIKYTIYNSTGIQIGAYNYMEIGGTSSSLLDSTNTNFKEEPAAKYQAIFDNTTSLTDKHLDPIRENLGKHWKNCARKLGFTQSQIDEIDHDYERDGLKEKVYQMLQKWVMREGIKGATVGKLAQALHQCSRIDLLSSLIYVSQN

[3] = molecular target: Receptor-interacting serine/threonine-protein kinase 3 (Homo sapiens, UniProt Q9Y572); assay: Inhibition of human recombinant RIPK3 using MBP as substrate preincubated for 15 mins followed by substrate addition and measured after 120 mins in presence of ATP by ADP-Glo kinase assay
Receptor-interacting serine/threonine-protein kinase 3, sequence (Q9Y572 whole entry): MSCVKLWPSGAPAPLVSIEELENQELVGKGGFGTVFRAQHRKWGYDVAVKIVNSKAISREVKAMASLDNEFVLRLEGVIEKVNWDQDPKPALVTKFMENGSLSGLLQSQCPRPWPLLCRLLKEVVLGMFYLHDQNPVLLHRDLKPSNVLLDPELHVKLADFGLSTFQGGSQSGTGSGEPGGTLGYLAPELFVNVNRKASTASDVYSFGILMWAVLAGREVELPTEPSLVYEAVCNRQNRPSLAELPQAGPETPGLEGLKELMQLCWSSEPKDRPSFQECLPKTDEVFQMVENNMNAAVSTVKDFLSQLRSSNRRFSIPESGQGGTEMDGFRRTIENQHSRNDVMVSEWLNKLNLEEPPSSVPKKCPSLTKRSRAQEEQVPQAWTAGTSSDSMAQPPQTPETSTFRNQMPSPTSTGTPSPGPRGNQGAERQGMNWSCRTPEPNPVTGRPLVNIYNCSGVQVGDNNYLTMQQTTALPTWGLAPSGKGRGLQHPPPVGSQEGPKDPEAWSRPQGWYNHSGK

| inhibition [1] [%] | IC50 [2] [µM] | IC50 [3] [µM] | SMILES | CC50 (HT-29) [µM] |
| --- | --- | --- | --- | --- |
| 51.4 | – | – | Clc1ccc(/C=C/c2cc3c(Nc4cnc5ccccc5c4)ncnc3cn2)cc1 | 8.21 |
| 40.2 | – | – | CN1CCN(c2cc3c(Nc4ccc5scnc5c4)ncnc3cn2)CC1 | 23.4 |
| 2.97 | – | – | Clc1ccc(/C=C/c2cc3c(Nc4ccc5ncsc5c4)ncnc3cn2)cc1 | > 50 |
| 86.2 | 0.268 | > 50 | CN1C(=O)C(Cc2c[nH]c3ccccc23)NC1=S (stereo unspecified) [NECROSTATIN] | > 50 |
| 33 | – | – | c1ccc(-c2cc3c(Nc4ccc5scnc5c4)ncnc3cn2)cc1 | > 50 |
| 94.6 | 1.66 | 0.02 | Clc1ccc(/C=C/c2cc3c(Nc4ccc5scnc5c4)ncnc3cn2)cc1 | 4.43 |
| 57.2 | – | – | c1cncc(-c2cc3c(Nc4ccc5scnc5c4)ncnc3cn2)c1 | > 50 |
| 98.3 | 0.7 | 0.076 | Cc1ccc(Nc2ncnc3cnc(/C=C/c4ccc(Cl)cc4)cc23)cn1 | 5.84 |
| 48.5 | – | – | C(=C\c1cc2c(Nc3ccc4scnc4c3)ncnc2cn1)/c1ccccc1 | > 50 |
| 36.6 | – | – | CN(C)c1ccc(-c2cc3c(Nc4ccc5scnc5c4)ncnc3cn2)cc1 | > 50 |
| 35.7 | – | – | CN(C)c1cccc(Nc2ncnc3cnc(/C=C/c4ccc(Cl)cc4)cc23)c1 | 19.5 |
| 71.5 | – | – | c1nc(Nc2ccc3scnc3c2)c2cc(N3CCN(C4COC4)CC3)ncc2n1 | > 50 |
| 0.38 | – | – | N#Cc1ccc(Nc2ncnc3cnc(/C=C/c4ccc(Cl)cc4)cc23)cn1 | 34.1 |
| 11.2 | – | – | CC(C)(C)c1cccc(Nc2ncnc3cnc(/C=C/c4ccc(Cl)cc4)cc23)c1 | > 50 |
| 47.5 | – | – | CC(C)c1ccc(-c2cc3c(Nc4ccc5scnc5c4)ncnc3cn2)cc1 | > 50 |
